Data set [1] has as its target T1, Glutaminase kidney isoform, mitochondrial (Homo sapiens, UniProt O94925).
T1 sequence (O94925 whole entry): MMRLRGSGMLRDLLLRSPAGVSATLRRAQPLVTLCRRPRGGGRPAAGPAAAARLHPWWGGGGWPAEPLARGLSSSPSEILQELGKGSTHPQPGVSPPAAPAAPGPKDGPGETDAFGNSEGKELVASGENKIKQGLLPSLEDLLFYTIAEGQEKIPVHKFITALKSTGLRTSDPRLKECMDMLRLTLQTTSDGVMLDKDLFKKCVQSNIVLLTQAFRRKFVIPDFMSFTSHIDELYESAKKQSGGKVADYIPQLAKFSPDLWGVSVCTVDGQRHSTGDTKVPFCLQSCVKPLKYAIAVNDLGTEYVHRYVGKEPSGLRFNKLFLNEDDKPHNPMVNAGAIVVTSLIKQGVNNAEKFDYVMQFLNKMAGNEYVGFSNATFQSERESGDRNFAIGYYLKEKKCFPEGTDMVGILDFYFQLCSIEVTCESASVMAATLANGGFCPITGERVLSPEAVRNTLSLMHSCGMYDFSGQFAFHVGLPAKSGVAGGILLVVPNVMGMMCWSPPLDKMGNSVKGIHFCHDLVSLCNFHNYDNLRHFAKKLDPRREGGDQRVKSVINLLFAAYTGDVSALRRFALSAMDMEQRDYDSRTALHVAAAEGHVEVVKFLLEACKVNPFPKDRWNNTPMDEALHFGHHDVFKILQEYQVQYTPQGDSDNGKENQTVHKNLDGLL
The data set is described as follows: Inhibition of recombinant human GLS1 expressed in Escherichia coli strain BL21 (DE3) preincubated for 10 mins before glutamine addition and measured after 60 mins by bovine liver glutamate dehydrogenase based coupled enzyme assay.

Data set [2] deals with HCT-116. Put plainly: Antiproliferative activity against human HCT116 cells assessed as reduction in cell viability incubated for 72 hrs by MTT assay. Format: functional, cell-based. To be noted: HCT-116, 72 h. A general note: Tetrazolium assays rely on reduction of a dye to a coloured formazan, in cell work by metabolically active cells.
The subject of another data set is MDA-MB-436. The data set is described as follows: Antiproliferative activity against human MDA-MB-436 cells assessed as reduction in cell viability incubated for 72 hrs by MTT assay. To be noted: MDA-MB-436, 72 h. The class given is functional, cell-based.
In data set [3] the test system is HCT-116. The data set is described as follows: Inhibition of colony formation in human HCT-116 cells incubated for 14 days by crystal violet staining based assay. The class given is functional, cell-based. To be noted: dose 0.1-2 µM, time 14.0 day.
A short description of data set [4]: Distribution coefficient, logD of the compound at pH 7.4 by LC-MS based shake-flask method. Format: physicochemical. To be noted: octanol/water, read-out: logD.
Data set [5] can be described thus: Intrinsic aqueous solubility of compound at pH 7.4 by LC-MS based shake-flask method. The following applies: read-out: Intrinsic_solubility. The class given is physicochemical.
In data set [6] the target is T2, Glutaminase kidney isoform, mitochondrial (Homo sapiens) (UniProt O94925).
T2 sequence (whole entry): T1 sequence (O94925 whole entry)
Description: Binding affinity to human GLS1 expressed in Escherichia coli strain BL21 (DE3) assessed as change in melting temperature by SYPRO orange dye based protein thermal shift assay

In brackets after ≈: the same amount, converted by molar mass.

Turning to `O=C1Cc2cccc(c2)OCCC/C=C/CCCOc2cccc(c2)CC(=O)Nc2nnc(s2)CCCCc2ccc(nn2)N1`, the half-maximal inhibitory concentration (IC50) in data set [1] is 28 nM; in the data set with HCT-116 [2] it was 190 nM; in the data set with MDA-MB-436, 570 nM. Also, the inhibition result in the data set on HCT-116 [3] is “Dose-Dependent Effect”. For the same compound, the log distribution coefficient (logD) in data set [4] turned out to be 3.48. Moreover, in data set [5], the solubility thermodynamic stood at 1.62 µg/mL (≈ 2.58 µM). Moreover, the ΔTm in data set [6] came out at 18.3 °C.
In the case of `O=C1Cc2cccc(c2)OCCCC/C=C/CCCCOc2cccc(c2)CC(=O)NC2=NN=C(CCCCC3=NN=C(N1)S3)S2`, the IC50 amounted to 225 nM in data set [1], 7080 nM in the data set with HCT-116 [2] and 6490 nM with MDA-MB-436. In data set [4], the logD stood at 3.85. In data set [5], the solubility thermodynamic was found to be 0.22 µg/mL (≈ 0.333 µM). Moreover, the ΔTm in data set [6] came out at 16.6 °C.
For the compound `O=C1Cc2cccc(c2)OCC/C=C/CCOc2cccc(c2)CC(=O)NC2=NN=C(CCCCC3=NN=C(N1)S3)S2`, the IC50 in data set [1] was 47 nM; in the data set with HCT-116 [2] it was 350 nM; with MDA-MB-436 it was 470 nM. Also, in data set [4], the logD stood at 3.16. Further, in data set [5], the solubility thermodynamic turned out to be 0.31 µg/mL (≈ 0.513 µM). In data set [6], the ΔTm is 15.9 °C.
Consider `O=C1CCc2cccc(c2)OCC/C=C/CCCC(=O)Nc2nnc(s2)CCCCc2ccc(nn2)N1`, for which the values for the IC50 (in data set [1]; in the data set on HCT-116 [2]; in the data set on MDA-MB-436) were 372 nM, 1450 nM and 6300 nM, respectively. In data set [4], the pH-dependent lipophilicity (logD) turned out to be 3.08. In data set [5], the solubility thermodynamic turned out to be 2.05 µg/mL (≈ 3.94 µM). For the same compound, the ΔTm in data set [6] amounted to 11.7 °C.
As to `O=C1Cc2cccc(c2)OC/C=C/COc2cccc(c2)CC(=O)Nc2nnc(s2)CCCCc2ccc(nn2)N1`, the IC50 in data set [1] stood at 32 nM; in the data set with HCT-116 [2] it was 260 nM; with MDA-MB-436, 640 nM. In addition, the inhibition entry in the data set with HCT-116 [3] is “Dose-Dependent Effect”. Also, the logD in data set [4] was determined as 2.79. Further, the solubility thermodynamic in data set [5] amounted to 2.16 µg/mL (≈ 3.78 µM). The shift in melting temperature (ΔTm) in data set [6] worked out at 17.2 °C.
In the case of `C=CCCOc1cccc(CC(=O)Nc2ccc(CCCCc3nnc(NC(=O)Cc4cccc(OCCC=C)c4)s3)nn2)c1`, the IC50 in data set [1] came to 68 nM.
Turning to `O=C1Cc2ccc(cc2)OC/C=C/COc2ccc(cc2)CC(=O)Nc2nnc(s2)CCCCc2nnc(s2)N1`, the values for the IC50 (in data set [1]; in the data set on HCT-116 [2]; with MDA-MB-436) were 76 nM, 420 nM and 790 nM, respectively. For the same compound, the logD in data set [4] turned out to be 2.98. Moreover, the solubility thermodynamic in data set [5] was determined as 0.36 µg/mL (≈ 0.624 µM). Also, the ΔTm in data set [6] came to 16.1 °C.
Regarding `O=C1Cc2ccc(cc2)OCCCC/C=C/CCCCOc2ccc(cc2)CC(=O)Nc2nnc(s2)CCCCc2nnc(s2)N1`, the IC50 in data set [1] worked out at 193 nM; in the data set with HCT-116 [2] it was 1480 nM; with MDA-MB-436, 2510 nM. Besides, the logD in data set [4] was determined as 3.91. In addition, in data set [5], the solubility thermodynamic is 0.25 µg/mL (≈ 0.378 µM). The ΔTm in data set [6] came to 12.9 °C.
For the compound `O=C1CCCC/C=C/CCCCOc2cccc(c2)CCC(=O)Nc2nnc(s2)CCCCc2ccc(nn2)N1`, the figures for the IC50 (in data set [1]; in the data set on HCT-116 [2]; with MDA-MB-436) were 123 nM, 680 nM and 1820 nM, respectively. Moreover, the logD in data set [4] is 3.89. Further, the solubility thermodynamic in data set [5] came out at 1.97 µg/mL (≈ 3.5 µM). In addition, the shift in melting temperature (ΔTm) in data set [6] is 16.3 °C.
With `O=C1Cc2ccc(cc2)OCC/C=C/CCOc2ccc(cc2)CC(=O)Nc2nnc(s2)CCCCc2nnc(s2)N1`, the IC50 is 80 nM in data set [1], 960 nM in the data set on HCT-116 [2] and 1900 nM in the data set with MDA-MB-436. Further, the inhibition entry in the data set with HCT-116 [3] was “Dose-Dependent Effect”. The pH-dependent lipophilicity (logD) in data set [4] is 3.52. Besides, the solubility thermodynamic in data set [5] worked out at 0.33 µg/mL (≈ 0.546 µM). In addition, the ΔTm in data set [6] was found to be 13.9 °C.
For `O=C(Cc1ccccc1)Nc1nnc(CCSCCc2nnc(NC(=O)Cc3ccccc3)s2)s1`, the figures for the IC50 in the data set on HCT-116 [2] and with MDA-MB-436 were 3910 nM and 5080 nM, respectively. Further, in data set [4], the logD turned out to be 2.86.
`O=C1Cc2cccc(c2)OCCC/C=C/CCCOc2cccc(c2)CC(=O)NC2=NN=C(CCCCC3=NN=C(N1)S3)S2`: the IC50 turned out to be 82 nM in data set [1], 510 nM in the data set on HCT-116 [2] and 820 nM in the data set with MDA-MB-436. In data set [4], the logD is 3.49. Further, the solubility thermodynamic in data set [5] came to 0.25 µg/mL (≈ 0.395 µM). The ΔTm in data set [6] was 16.7 °C.
On to `O=C1Cc2ccccc2OCCCC/C=C/CCCCOc2cccc(c2)CC(=O)Nc2nnc(s2)CCCCc2ccc(nn2)N1`, for which the IC50 in data set [1] is 37 nM; in the data set on HCT-116 [2], 380 nM; in the data set with MDA-MB-436 it was 710 nM. Moreover, the log distribution coefficient (logD) in data set [4] worked out at 3.72. In data set [5], the solubility thermodynamic stood at 1.09 µg/mL (≈ 1.66 µM). Besides, the thermal shift (ΔTm) in data set [6] was found to be 17.7 °C.
On to `O=C1CC/C=C/CCC(=O)Nc2cccc(c2)CC(=O)Nc2nnc(s2)CCCCc2ccc(nn2)NC(=O)Cc2cccc(c2)N1`, for which the IC50 in data set [1] amounted to 75 nM; in the data set on HCT-116 [2], 520 nM; with MDA-MB-436, 840 nM. Moreover, in the data set with HCT-116 [3], the inhibition entry is “Dose-Dependent Effect”. Also, the logD in data set [4] was 2.53. For the same compound, the solubility thermodynamic in data set [5] is 2.34 µg/mL (≈ 3.58 µM). The ΔTm in data set [6] was 15.9 °C.
`O=C1Cc2ccc(cc2)OCCC/C=C/CCCOc2ccc(cc2)CC(=O)Nc2nnc(s2)CCCCc2nnc(s2)N1`: the concentration for half-maximal inhibition (IC50) was 4700 nM in data set [1], 16200 nM in the data set with HCT-116 [2] and 38300 nM with MDA-MB-436. In addition, in data set [4], the pH-dependent lipophilicity (logD) was determined as 3.62. The solubility thermodynamic in data set [5] amounted to 0.29 µg/mL (≈ 0.458 µM). For the same compound, the ΔTm in data set [6] came to 0.19 °C.
In the case of `O=C1CCc2cccc(c2)OCCCC/C=C/CCCC(=O)Nc2nnc(s2)CCCCc2ccc(nn2)N1`, the 50% inhibitory concentration (IC50) in data set [1] was 25 nM; with HCT-116 [2] it was 140 nM; in the data set on MDA-MB-436 it was 510 nM. The inhibition entry with HCT-116 [3] is “Dose-Dependent Effect”. The logD in data set [4] is 4.29. Further, in data set [5], the solubility thermodynamic amounted to 1.84 µg/mL (≈ 3.35 µM). For the same compound, in data set [6], the shift in melting temperature (ΔTm) worked out at 16.7 °C.
On to `O=C1Cc2cccc(c2)OC/C=C/COc2cccc(c2)CC(=O)NC2=NN=C(CCCCC3=NN=C(N1)S3)S2`, for which the IC50 in data set [1] is 41 nM; in the data set with HCT-116 [2] it was 280 nM; with MDA-MB-436, 510 nM. Further, the inhibition result in the data set on HCT-116 [3] is “Dose-Dependent Effect”. Moreover, in data set [4], the logD is 2.9. The solubility thermodynamic in data set [5] worked out at 0.34 µg/mL (≈ 0.59 µM). Also, the ΔTm in data set [6] came to 16.5 °C.

As a reminder, the IC50 is the concentration needed to halve the response being measured. As a reminder, the logD is the decadic logarithm of the distribution of all forms, ionised or not, between an organic phase and buffer at a given pH. As a reminder, the ΔTm is the shift of the melting midpoint relative to a reference.

Values taken from ChEMBL document CHEMBL4831477, “Structure-Enabled Discovery of Novel Macrocyclic Inhibitors Targeting Glutaminase 1 Allosteric Binding Site” (J Med Chem, 2021).
